Experimental data as given in patent US12264134B2 (Merck Sharp & Dohme LLC, priority 2018, dated 2025).

Target: IDO1 (Homo sapiens, UniProt P14902)
Assay: IDO1 Cellular Assay in HeLa Cells Stimulated with IFNγ
Type: cell-based
Settings: read-out: HeLa Cell Potency, IC50

Chain of IDO1 (P14902 whole entry): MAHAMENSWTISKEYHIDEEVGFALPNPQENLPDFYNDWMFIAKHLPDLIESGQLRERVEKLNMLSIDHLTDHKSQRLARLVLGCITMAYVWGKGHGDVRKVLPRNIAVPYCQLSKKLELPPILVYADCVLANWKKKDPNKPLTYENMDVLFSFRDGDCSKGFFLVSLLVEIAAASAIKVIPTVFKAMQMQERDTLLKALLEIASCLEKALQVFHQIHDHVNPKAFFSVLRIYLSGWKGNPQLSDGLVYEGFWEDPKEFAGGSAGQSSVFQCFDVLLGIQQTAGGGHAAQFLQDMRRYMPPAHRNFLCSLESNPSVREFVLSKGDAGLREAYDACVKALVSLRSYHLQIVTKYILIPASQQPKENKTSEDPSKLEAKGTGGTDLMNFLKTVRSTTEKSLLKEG

IC50	Structure (SMILES)
45.2 nM	Cc1cc(F)ccc1N1CCN(C(=O)Cn2nc(C(=O)N3C[C@@H](C)O[C@@H](C)C3)c3c2CCC3)CC1 [Example 46, 2-{3-[(2R,6S)-2,6-dimethylmorpholine-4-carbonyl]-5,6-dihydrocyclopenta[c]pyrazol-1(4H)-yl}-1-[4-(4-fluoro-2-methylphenyl)piperazin-1-yl]ethan-1-one]
13.5 nM	Cc1c(N2CCN(C(=O)Cn3nc(C(=O)N4C[C@@H](C)O[C@@H](C)C4)c4c3CCC4)CC2)ccc(F)c1F [Example 49, 1-[4-(3,4-difluoro-2-methylphenyl)piperazin-1-yl]-2-{3-[(2R,6S)-2,6-dimethylmorpholine-4-carbonyl]-5,6-dihydrocyclopenta[c]pyrazol-1(4H)-yl}ethan-1-one]
15.1 nM	Cc1ccc(N2CCN(C(=O)Cn3nc(C(=O)N4C[C@@H](C)O[C@@H](C)C4)c4c3CCC4)CC2)c(C)c1 [Example 50, 2-{3-[(2R,6S)-2,6-dimethylmorpholine-4-carbonyl]-5,6-dihydrocyclopenta[c]pyrazol-1(4H)-yl}-1-[4-(2,4-dimethylphenyl)piperazin-1-yl]ethan-1-one]
57.1 nM	C[C@@H]1CN(C(=O)c2nn(CC(=O)N3CCN(c4ccc(Cl)c(F)c4)CC3)c3c2CCC3)C[C@H](C)O1 [Example 54, 1-[4-(4-chloro-3-fluorophenyl)piperazin-1-yl]-2-{3-[(2R,6S)-2,6-dimethylmorpholine-4-carbonyl]-5,6-dihydrocyclopenta[c]pyrazol-1(4H)-yl}ethan-1-one]
244 nM	C[C@@H]1CN(C(=O)c2nn(CC(=O)N3CCN(c4ccccc4Cl)CC3)c3c2CCC3)C[C@H](C)O1 [Example 55, 1-[4-(2-chlorophenyl)piperazin-1-yl]-2-{3-[(2R,6S)-2,6-dimethylmorpholine-4-carbonyl]-5,6-dihydrocyclopenta[c]pyrazol-1(4H)-yl}ethan-1-one]
126 nM	Cc1ccc(N2CCN(C(=O)Cn3nc(C(=O)N4C[C@@H](C)O[C@@H](C)C4)c4c3CCC4)CC2)c(F)c1 [Example 56, 2-{3-[(2R,6S)-2,6-dimethylmorpholine-4-carbonyl]-5,6-dihydrocyclopenta[c]pyrazol-1(4H)-yl}-1-[4-(2-fluoro-4-methylphenyl)piperazin-1-yl]ethan-1-one]
65.6 nM	Cc1ccc(N2CCN(C(=O)Cn3nc(C(=O)N4C[C@@H](C)O[C@@H](C)C4)c4c3CCC4)CC2)cc1Cl [Example 61, 1-[4-(3-chloro-4-methylphenyl)piperazin-1-yl]-2-{3-[(2R,6S)-2,6-dimethylmorpholine-4-carbonyl]-5,6-dihydrocyclopenta[c]pyrazol-1(4H)-yl}ethan-1-one]
133 nM	C[C@@H]1CN(C(=O)c2nn(CC(=O)N3CCN(c4ccc(Cl)cc4Cl)CC3)c3c2CCC3)C[C@H](C)O1 [Example 67, 1-[4-(2,4-dichlorophenyl)piperazin-1-yl]-2-{3-[(2R,6S)-2,6-dimethylmorpholine-4-carbonyl]-5,6-dihydrocyclopenta[c]pyrazol-1(4H)-yl}ethan-1-one]
12.1 nM	C[C@@H]1CN(C(=O)c2nn(CC(=O)N3CCN(c4cccc(Cl)c4Cl)CC3)c3c2CCC3)C[C@H](C)O1 [Example 69, 1-[4-(2,3-dichlorophenyl)piperazin-1-yl]-2-{3-[(2R,6S)-2,6-dimethylmorpholine-4-carbonyl]-5,6-dihydrocyclopenta[c]pyrazol-1(4H)-yl}ethan-1-one]
235 nM	C[C@@H]1CN(C(=O)c2nn(CC(=O)N3CCN(c4ccc(F)c(F)c4F)CC3)c3c2CCC3)C[C@H](C)O1 [Example 70, 2-{3-[(2R,6S)-2,6-dimethylmorpholine-4-carbonyl]-5,6-dihydrocyclopenta[c]pyrazol-1(4H)-yl}-1-[4-(2,3,4-trifluorophenyl)piperazin-1-yl]ethan-1-one]
34.1 nM	Cc1ccc(F)cc1N1CCN(C(=O)Cn2nc(C(=O)N3C[C@@H](C)O[C@@H](C)C3)c3c2CCC3)CC1 [Example 75, 2-{3-[(2R,6S)-2,6-dimethylmorpholine-4-carbonyl]-5,6-dihydrocyclopenta[c]pyrazol-1(4H)-yl}-1-[4-(5-fluoro-2-methylphenyl)piperazin-1-yl]ethan-1-one]

Second part, the compound before the results:

Structure (SMILES)	IC50
C[C@@H]1CN(C(=O)c2nn(CC(=O)N3CCN(c4ccc(F)c(F)c4)CC3)c3c2CCC3)C[C@H](C)O1 [Example 45, 1-[4-(3,4-difluorophenyl)piperazin-1-yl]-2-{3-[(2R,6S)-2,6-dimethylmorpholine-4-carbonyl]-5,6-dihydrocyclopenta[c]pryazol-1(4H)-yl}ethan-1-one]	233 nM
COc1ccc(N2CCN(C(=O)Cn3nc(C(=O)N4C[C@@H](C)O[C@@H](C)C4)c4c3CCC4)CC2)c(C)c1C [Example 47, 2-{3-[(2R,6S)-2,6-dimethylmorpholine-4-carbonyl]-5,6-dihydrocyclopenta[c]pyrazol-1(4H)-yl}-1-[4-(4-methoxy-2,3-dimethylphenyl)piperazin-1-yl]ethan-1-one]	83 nM
C[C@@H]1CN(C(=O)c2nn(CC(=O)N3CCN(c4ccc(C(F)(F)F)cc4)CC3)c3c2CCC3)C[C@H](C)O1 [Example 51, 2-{3-[(2R,6S)-2,6-dimethylmorpholine-4-carbonyl]-5,6-dihydrocyclopenta[c]pyrazol-1(4H)-yl}-1-{4-[4-(trifluoromethyl)phenyl]piperazin-1-yl}ethan-1-one]	173 nM
C[C@@H]1CN(C(=O)c2nn(CC(=O)N3CCN(c4cccc5c4CCCC5)CC3)c3c2CCC3)C[C@H](C)O1 [Example 52, 2-{3-[(2R,6S)-2,6-dimethylmorpholine-4-carbonyl]-5,6-dihydrocyclopenta[c]pyrazol-1(4H)-yl}-1-[4-(5,6,7,8-tetrahydronaphthalen-1-yl)piperazin-1-yl]ethan-1-one]	10.4 nM
Cc1cc(N2CCN(C(=O)Cn3nc(C(=O)N4C[C@@H](C)O[C@@H](C)C4)c4c3CCC4)CC2)ccc1F [Example 53]	76.9 nM
C[C@@H]1CN(C(=O)c2nn(CC(=O)N3CCN(c4ccc(F)c(C(F)F)c4)CC3)c3c2CCC3)C[C@H](C)O1 [Example 58, 1-{4-[3-(difluoromethyl)-4-fluorophenyl]piperazin-1-yl}-2-{3-[(2R,6S)-2,6-dimethylmorpholine-4-carbonyl]-5,6-dihydrocyclopenta[c]pyrazol-1(4H)-yl}ethan-1-one]	447 nM
C[C@@H]1CN(C(=O)c2nn(CC(=O)N3CCN(c4ccccc4C4CC4)CC3)c3c2CCC3)C[C@H](C)O1 [Example 59, 1-[4-(2-cyclopropylphenyl)piperazin-1-yl]-2-{3-[(2R,6S)-2,6-dimethylmorpholine-4-carbonyl]-5,6-dihydrocyclopenta[c]pyrazol-1(4H)-yl}ethan-1-one]	319 nM
CCc1cccc(N2CCN(C(=O)Cn3nc(C(=O)N4C[C@@H](C)O[C@@H](C)C4)c4c3CCC4)CC2)c1 [Example 60, 2-{3-[(2R,6S)-2,6-dimethylmorpholine-4-carbonyl]-5,6-dihydrocyclopenta[c]pyrazol-1(4H)-yl}-1-[4-(3-ethylphenyl)piperazin-1-yl]ethan-1-one]	209 nM
COc1cc(F)c(N2CCN(C(=O)Cn3nc(C(=O)N4C[C@@H](C)O[C@@H](C)C4)c4c3CCC4)CC2)cc1F [Example 62, 1-[4-(2,5-difluoro-4-methoxyphenyl)piperazin-1-yl]-2-{3-[(2R,6S)-2,6-dimethylmorpholine-4-carbonyl]-5,6-dihydrocyclopenta[c]pyrazol-1(4H)-yl}ethan-1-one]	146 nM
COc1c(C#N)cccc1N1CCN(C(=O)Cn2nc(C(=O)N3C[C@@H](C)O[C@@H](C)C3)c3c2CCC3)CC1 [Example 63, 3-[4-({3-[(2R,6S)-2,6-dimethylmorpholine-4-4-carbonyl]-5,6-dihydrocyclopenta[c]pyrazol-1(4H)-yl}acetyl)piperazin-1-yl]-2-methoxybenzonitrile]	335 nM
Cc1ccc(N2CCN(C(=O)Cn3nc(C(=O)N4C[C@@H](C)O[C@@H](C)C4)c4c3CCC4)CC2)cc1F [Example 64, 2-{3-[(2R,6S)-2,6-dimethylmorpholine-4-carbonyl]-5,6-dihydrocyclopenta[c]pyrazol-1(4H)-yl}-1-[4-(3-fluoro-4-methylphenyl)piperazin-1-yl]ethan-1-one]	30.4 nM
COc1c(F)cccc1N1CCN(C(=O)Cn2nc(C(=O)N3C[C@@H](C)O[C@@H](C)C3)c3c2CCC3)CC1 [Example 65, 2-{3-[(2R,6S)-2,6-dimethylmorpholine-4-carbonyl]-5,6-dihydrocyclopenta[c]pyrazol-1(4H)-yl}-1-[4-(3-fluoro-2-methoxyphenyl)piperazin-1-yl]ethan-1-one]	145 nM
Cc1cc(C)c(N2CCN(C(=O)Cn3nc(C(=O)N4C[C@@H](C)O[C@@H](C)C4)c4c3CCC4)CC2)cc1C [Example 71, 2-{3-[(2R,6S)-2,6-dimethylmorpholine-4-carbonyl]-5,6-dihydrocyclopenta[c]pyrazol-1(4H)-yl}-1-[4-(2,4,5-trimethylphenyl)piperazin-1-yl]ethan-1-one]	145 nM
CCc1ccccc1N1CCN(C(=O)Cn2nc(C(=O)N3C[C@@H](C)O[C@@H](C)C3)c3c2CCC3)CC1 [Example 72, 2-{3-[(2R,6S)-2,6-dimethylmorpholine-4-carbonyl]-5,6-dihydrocyclopenta[c]pyrazol-1(4H)-yl}-1-[4-(2-ethylphenyl)piperazin-1-yl]ethan-1-one]	125 nM
C[C@@H]1CN(C(=O)c2nn(CC(=O)N3CCN(c4ccc5c(c4)CCCO5)CC3)c3c2CCC3)C[C@H](C)O1 [Example 73, 1-[4-(3,4-dihydro-2H-1-benzopyran-6-yl)piperazin-1-yl]-2-{3-[(2R,6S)-2,6-dimethylmorpholine-4-carbonyl]-5,6-dihydrocyclopenta[c]pyrazol-1(4H)-yl}ethan-1-one]	176 nM
C[C@@H]1CN(C(=O)c2nn(CC(=O)N3CCN(c4cc(F)c(F)cc4F)CC3)c3c2CCC3)C[C@H](C)O1 [Example 74, 2-{3-[(2R,6S)-2,6-dimethylmorpholine-4-carbonyl]-5,6-dihydrocyclopenta[c]pyrazol-1(4H)-yl}-1-[4-(2,4,5-trifluorophenyl)piperazin-1-yl]ethan-1-one]	289 nM
